From patent publication US20260297068A1, “SOLID FORM OF N-SUBSTITUTED PHENYLSULFONAMIDE COMPOUND” (SHANGHAI LEADO PHARMATECH CO. LTD., priority 2022, published 2026)
Counter-ions that a name gives are not always drawn.

Columns and labels:
[1] = Solid-state stability (HPLC purity and crystal form by XRPD after storage); assay type: physicochemical; details: for Purity / Initial purity / HPLC purity after storage at 336 h / HPLC purity after storage at 672 h / HPLC purity after storage at 168 h: HPLC; for Initial purity: starting sample before storage; for HPLC purity after storage at 336 h / HPLC purity after storage at 672 h / HPLC purity after storage at 168 h: solid state, open
Protocol: About 10 mg of each solid form of the compound was weighed and added to the HPLC vial, respectively, the bottleneck was sealed with a sealing film, and 10 small holes were made on the film. The vial was placed in 25° C./60% RH and 40° C./75% RH environment for 4 weeks, samples were taken in the 1st week, the 2nd week and the 4th week respectively, the purity (by HPLC analysis) and crystal form (by X ray powder diffraction analysis) of the sample were investigated.

[2] = Hygroscopicity by dynamic moisture adsorption (DVS); assay type: physicochemical; details: 25° C./80% RH, 0% RH-95% RH adsorption curve
Protocol: Dynamic moisture adsorption (DVS) analysis: the instrument is a DVS Intrinsic produced by SMS company (Surface Measurement Systems); temperature, 25° C.; carrier gas, flow rate: nitrogen, 200 mL/min; mass change per unit time: 0.002%/min; relative humidity range: 0% RH-95% RH.
Dynamic moisture absorption (DVS) was used to test their hygroscopicity.

[3] = 25 °C/60% RH/open, 1 week, 10080 min
[4] = 25 °C/60% RH/open, 2 weeks, 20160 min
[5] = 25 °C/60% RH/open, 4 weeks, 40320 min
[6] = 40 °C/75% RH/open, 1 week, 10080 min
[7] = 40 °C/75% RH/open, 2 weeks, 20160 min
[8] = 40 °C/75% RH/open, 4 weeks, 40320 min
[9] = 25° C./60% RH and 40° C./75% RH, 4 weeks, result in words

| Purity [1, 3] [area %] | Purity [1, 4] [area %] | Purity [1, 5] [area %] | Purity [1, 6] [area %] | Purity [1, 7] [area %] | Purity [1, 8] [area %] | Initial purity [1] [area %] | HPLC purity change on storage [1, 9] | crystalline phase change on storage (XRPD) [1, 9] | HPLC purity after storage at 336 h ([1]; 40 °C/75% RH/open, 2 weeks) [%] | HPLC purity after storage at 672 h ([1]; 40 °C/75% RH/open, 4 weeks) [%] | moisture adsorption value (moisture uptake) [2] [%] | HPLC purity after storage at 168 h ([1]; 25 °C/60% RH/open, 1 week) [%] | HPLC purity after storage at 336 h ([1]; 25 °C/60% RH/open, 2 weeks) [%] | HPLC purity after storage at 672 h ([1]; 25 °C/60% RH/open, 4 weeks) [%] | HPLC purity after storage at 168 h ([1]; 40 °C/75% RH/open, 1 week) [%] | Structure (SMILES) |
| --- | --- | --- | --- | --- | --- | --- | --- | --- | --- | --- | --- | --- | --- | --- | --- | --- |
| 98.97 | 98.92 | 98.87 | 99.02 | 98.9 | 99 | 99.02 | – | – | – | – | 5.5 | – | – | – | – | CNCc1ccc(NS(=O)(=O)c2ccsc2)c(-c2ccco2)c1 [hydrochloride crystal form C, N-(2-(furan-2-yl)-4-((methylamino)methyl)phenyl)thiophene-3-sulfonamide] |
| 98.72 | 98.7 | 98.79 | 98.74 | 98.75 | 98.68 | 98.72 | – | – | – | – | 1.4 | – | – | – | – | CNCc1ccc(NS(=O)(=O)c2ccsc2)c(-c2ccco2)c1 [malate crystal form F, N-(2-(furan-2-yl)-4-((methylamino)methyl)phenyl)thiophene-3-sulfonamide] |
| 98.92 | 98.86 | 98.94 | 98.92 | 98.72 | 98.98 | 98.82 | – | – | – | – | 0.6 | – | – | – | – | CNCc1ccc(NS(=O)(=O)c2ccsc2)c(-c2ccco2)c1 [succinate crystal form E, N-(2-(furan-2-yl)-4-((methylamino)methyl)phenyl)thiophene-3-sulfonamide] |
| 98.74 | 98.65 | 98.78 | 98.76 | 98.65 | 98.78 | 98.77 | – | – | – | – | 1.3 | – | – | – | – | CNCc1ccc(NS(=O)(=O)c2ccsc2)c(-c2ccco2)c1 [sulfate crystal form D, N-(2-(furan-2-yl)-4-((methylamino)methyl)phenyl)thiophene-3-sulfonamide] |

The remaining lines, values behind:

| Structure (SMILES) | Purity [1, 3] [area %] | Purity [1, 4] [area %] | Purity [1, 5] [area %] | Purity [1, 6] [area %] | Purity [1, 7] [area %] | Purity [1, 8] [area %] | Initial purity [1] [area %] | HPLC purity change on storage [1, 9] | crystalline phase change on storage (XRPD) [1, 9] | HPLC purity after storage at 336 h ([1]; 40 °C/75% RH/open, 2 weeks) [%] | HPLC purity after storage at 672 h ([1]; 40 °C/75% RH/open, 4 weeks) [%] | moisture adsorption value (moisture uptake) [2] [%] | HPLC purity after storage at 168 h ([1]; 25 °C/60% RH/open, 1 week) [%] | HPLC purity after storage at 336 h ([1]; 25 °C/60% RH/open, 2 weeks) [%] | HPLC purity after storage at 672 h ([1]; 25 °C/60% RH/open, 4 weeks) [%] | HPLC purity after storage at 168 h ([1]; 40 °C/75% RH/open, 1 week) [%] |
| --- | --- | --- | --- | --- | --- | --- | --- | --- | --- | --- | --- | --- | --- | --- | --- | --- |
| CNCc1ccc(NS(=O)(=O)c2ccsc2)c(-c2ccco2)c1 [Malonate crystal form K, N-(2-(furan-2-yl)-4-((methylamino)methyl)phenyl)thiophene-3-sulfonamide] | 98.64 | 98.61 | 98.59 | 98.64 | 98.58 | 98.46 | 98.64 | – | – | – | – | – | – | – | – | – |
| CNCc1ccc(NS(=O)(=O)c2ccsc2)c(-c2ccco2)c1 [Phosphate crystal form G, N-(2-(furan-2-yl)-4-((methylamino)methyl)phenyl)thiophene-3-sulfonamide] | 98.11 | 98.09 | 98.04 | 98.11 | 98.06 | 98.01 | 98.11 | – | – | – | – | – | – | – | – | – |
| CNCc1ccc(NS(=O)(=O)c2ccsc2)c(-c2ccco2)c1 [Pyroglutamate crystal form I, N-(2-(furan-2-yl)-4-((methylamino)methyl)phenyl)thiophene-3-sulfonamide] | 98.61 | 98.58 | 98.57 | 98.61 | 98.54 | 98.32 | 98.61 | – | – | – | – | – | – | – | – | – |
| CNCc1ccc(NS(=O)(=O)c2ccsc2)c(-c2ccco2)c1 [Tartrate crystal form H, N-(2-(furan-2-yl)-4-((methylamino)methyl)phenyl)thiophene-3-sulfonamide] | 98.71 | 98.62 | 98.6 | 98.7 | 98.6 | 98.53 | 98.71 | – | – | – | – | – | – | – | – | – |
| CNCc1ccc(NS(=O)(=O)c2ccsc2)c(-c2ccco2)c1 [benzene sulfonate crystal form J, N-(2-(furan-2-yl)-4-((methylamino)methyl)-phenyl)thiophene-3-sulfonamide] | 98.87 | 98.85 | 98.82 | 98.87 | 98.82 | 98.79 | 98.87 | – | – | – | – | – | – | – | – | – |
| CNCc1ccc(NS(=O)(=O)c2ccsc2)c(-c2ccco2)c1 [free crystal form A, N-(2-(furan-2-yl)-4-((methylamino)methyl)phenyl)thiophene-3-sulfonamide] | 98.18 | 98.14 | 98.1 | 98.19 | – | – | 98.11 | did not decrease significantly | no detectable crystalline phase changes | 98.2 | 98.1 | 1.6 | – | – | – | – |
| CNCc1ccc(NS(=O)(=O)c2ccsc2)c(-c2ccco2)c1 [fumarate crystal form B, N-(2-(furan-2-yl)-4-((methylamino)methyl)phenyl)thiophene-3-sulfonamide] | – | – | – | – | 98.5 | 98.52 | 98.55 | – | – | – | – | 0.2 | 98.5 | 98.5 | 98.6 | 98.4 |
